In general, IC50 refers to the concentration at which inhibition is half-maximal. Low readings indicate higher potency, high ones lower potency.

Experimental findings from patent US7973012B2, “C-phenyl glycitol compound” (Taisho Pharmaceutical Co., Ltd, priority 2006, dated 2011) are described below.

Each structure is given as a SMILES string.

Test [1] concerns the target T1, human SGLT1 (Homo sapiens, UniProt P13866).
T1 construct: expressed in transfected cells; host or cells: CHO-k1
T1 sequence (P13866 1-664): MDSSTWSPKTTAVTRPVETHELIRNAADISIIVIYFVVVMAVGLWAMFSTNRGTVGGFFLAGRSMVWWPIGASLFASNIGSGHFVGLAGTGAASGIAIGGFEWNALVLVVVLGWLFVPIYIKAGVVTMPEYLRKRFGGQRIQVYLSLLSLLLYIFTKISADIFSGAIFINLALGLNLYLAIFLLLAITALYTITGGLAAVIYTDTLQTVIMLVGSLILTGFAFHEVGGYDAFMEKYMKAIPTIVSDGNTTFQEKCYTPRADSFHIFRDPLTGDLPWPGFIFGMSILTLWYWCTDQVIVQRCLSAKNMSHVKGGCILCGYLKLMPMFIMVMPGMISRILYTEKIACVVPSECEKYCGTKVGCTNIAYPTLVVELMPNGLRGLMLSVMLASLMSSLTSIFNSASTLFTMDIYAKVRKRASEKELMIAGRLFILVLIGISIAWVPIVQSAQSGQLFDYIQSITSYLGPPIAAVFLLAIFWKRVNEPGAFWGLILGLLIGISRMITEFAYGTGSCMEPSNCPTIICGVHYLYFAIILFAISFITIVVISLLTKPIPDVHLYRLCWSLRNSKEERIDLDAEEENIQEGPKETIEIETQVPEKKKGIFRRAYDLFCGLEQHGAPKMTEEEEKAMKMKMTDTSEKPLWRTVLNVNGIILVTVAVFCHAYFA
Kind of test: Inhibition test of sodium-dependent sugar uptake in CHO-k1 cells stably expressing human SGLT1. The test is classed as cell-based. The following applies: for SGLT1 % inhibition at 100 nM: sugar uptake inhibition rate at 100 nM test compound vs control group; for IC50: CHO-k1 cells expressing human SGLT1, [14C]methyl α-D-glucopyranoside uptake, 37° C., 30 minutes. The procedure:
(§1) An SGLT1 sequence (NM_000343) was reverse-transcripted from human small intestinal mRNA, then amplified, and then introduced into pCMV-tag5A from Stratagene Corporation. An SGLT2 sequence (NM_003041) was prepared from human nephric mRNA as with the above method, and then introduced into pcDNA3.1+hygro from Invitrogen Corporation. Each cloned sequence was confirmed to be identical with the reported sequence.
(§2) The human SGLT1 and human SGLT2 expression vectors were transfected into CHO-k1 cells by using Lipofectamine 2000 from Invitrogen Corporation. The SGLT expression cells were incubated in the presence of Geneticin (SGLT1) or Hygromycin B (SGLT2) at a 500 μg/mL concentration to select resistant strains, and specific activity of sugar uptake was obtained as an indicator by the following system.
(§3) Cells stably expressing human SGLT1 and human SGLT2 were used for the inhibition test of sodium-dependent glucose uptake.
(§4) The cells were incubated in a pretreatment buffer A (200 μL for SGLT1, and 2 mL for SGLT2) for 20 minutes. The pretreatment buffer was removed and an uptake buffer B (75 μL for SGLT1, and 200 μL for SGLT2) containing a test compound was added to conduct an uptake reaction at 37° C. for 30 minutes (SGLT1) or an hour (SGLT2). After the reaction, the cells were washed with a washing buffer C twice (200 μL for SGLT1, and 2 mL for SGLT2), and then dissolved in a 0.2 M solution of NaOH (75 μL for SGLT1, and 400 μL for SGLT2). After a liquid scintilater was added thereto and mixed sufficiently, radioactivity was measured with microBETA (SGLT1) or a liquid scintillation counter from Beckman Coulter, Inc (SGLT2). As a control group, an uptake buffer containing no test compound was prepared. In addition, as the basic uptake buffer, an uptake buffer B containing choline chloride instead of NaCl was prepared. • A pretreatment buffer A: 140 mM choline chloride, 2 mM KCl, 1 mM CaCl2, 1 mM MgCl2, 10 mM HEPES/5 mM Tris, pH 7.4. • An uptake buffer B: 1 mM of methyl α-D-glucopyranoside containing [^14C]methyl α-D-glucopyranoside, 140 mM NaCl, 2 mM KCl, 1 mM CaCl2, 1 mM MgCl2, 10 mM HEPES/5 mM Tris, pH 7.4. • A washing buffer C: 10 mM methyl α-D-glucopyranoside, 140 mM choline chloride, 2 mM KCl, 1 mM CaCl2, 1 mM MgCl2, 10 mM HEPES/5 mM Tris, pH 7.4.
(§5) In order to obtain IC50 values, test compounds having adequate 6 concentrations were used and the test compound concentrations (IC50 values) at which sugar uptake is inhibited by 50% in comparison with the amount of sugar uptake (100%) of the control group were calculated.
(§6) In addition, the sugar uptake inhibition rates at 100 nM concentration of the test compound in comparison with the control group are shown in Table 7.

In test [2] the target is T2, human SGLT2 (Homo sapiens, UniProt P31639).
T2 construct: expressed in transfected cells; host or cells: CHO-k1
T2 sequence (P31639 1-672): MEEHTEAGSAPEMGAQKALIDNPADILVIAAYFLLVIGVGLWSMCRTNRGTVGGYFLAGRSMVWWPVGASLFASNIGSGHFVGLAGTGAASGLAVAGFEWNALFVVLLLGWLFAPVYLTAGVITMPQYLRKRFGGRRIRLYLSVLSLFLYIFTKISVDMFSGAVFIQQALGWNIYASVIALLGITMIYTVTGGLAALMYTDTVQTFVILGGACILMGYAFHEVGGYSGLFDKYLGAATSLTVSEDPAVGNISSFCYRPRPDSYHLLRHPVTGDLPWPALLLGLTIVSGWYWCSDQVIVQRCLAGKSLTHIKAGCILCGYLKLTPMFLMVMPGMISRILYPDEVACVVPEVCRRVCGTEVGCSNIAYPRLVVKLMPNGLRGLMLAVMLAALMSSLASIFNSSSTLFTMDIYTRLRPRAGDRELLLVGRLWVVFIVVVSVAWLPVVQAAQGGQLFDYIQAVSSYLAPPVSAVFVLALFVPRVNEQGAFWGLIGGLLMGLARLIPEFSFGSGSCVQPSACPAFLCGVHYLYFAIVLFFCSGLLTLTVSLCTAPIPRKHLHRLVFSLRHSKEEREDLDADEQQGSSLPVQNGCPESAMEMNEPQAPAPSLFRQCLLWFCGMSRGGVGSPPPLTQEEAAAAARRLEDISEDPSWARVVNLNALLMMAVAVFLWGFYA
In words: Inhibition test of sodium-dependent sugar uptake in CHO-k1 cells stably expressing human SGLT2. The test is classed as cell-based. As to conditions: for SGLT2 % inhibition at 100 nM: sugar uptake inhibition rate at 100 nM test compound vs control group; for IC50: CHO-k1 cells expressing human SGLT2, [14C]methyl α-D-glucopyranoside uptake, 37° C., an hour. As to the method: as §1, §2, §3, §4, §5, §6

As for `Cc1cc(O)c(C2OC(CO)C(O)C(O)C2O)cc1Cc1ccc(CCNC(=O)NC2CC3CCC2C3)cc1` (mixture of isomers) [Compound 124], the “SGLT1 % inhibition at 100 nM” value in test [1] turned out to be 71%. Further, the “SGLT2 % inhibition at 100 nM” value in test [2] worked out at 79%.
Take `Cc1cc(O)c(C2OC(CO)C(O)C(O)C2O)cc1Cc1ccc(CCNC(=O)NC2CCN(Cc3ccccc3)C2)cc1` (mixture of isomers) [Compound 132]: the “SGLT1 % inhibition at 100 nM” value in test [1] is on record as 90%. Also, the “SGLT2 % inhibition at 100 nM” value in test [2] is reported as 90%.
Turning to `Cc1cc(O)c(C2OC(CO)C(O)C(O)C2O)cc1Cc1ccc(CCNC(=O)Nc2ccccc2C(O)c2ccccc2)cc1` (mixture of isomers) [Compound 137], the “SGLT1 % inhibition at 100 nM” value in test [1] is recorded as 71%. Further, the “SGLT2 % inhibition at 100 nM” value in test [2] was determined as 79%.
For `Cc1cc(O)c(C2OC(CO)C(O)C(O)C2O)cc1Cc1ccc(CCNC(=O)N2CCC3CCCCC3C2)cc1` (mixture of isomers) [Compound 143] the same measures were 66% and 80%.
On to `O=C(NCCc1ccc(Cc2cc([C@@H]3O[C@H](CO)[C@@H](O)[C@H](O)[C@H]3O)c(O)cc2Cl)cc1)NC(CO)(CO)CO` [Compound 14, (1S)-1,5-anhydro-1-[4-chloro-5-[4-[2-[[[2-hydroxy-1,1-bis(hydroxymethyl)ethyl]aminocarbonyl]amino]ethyl]benzyl]-2-hydroxyphenyl]-D-glucitol], for which the IC50 in test [1] is 0.049 µM; in test [2] it was 0.021 µM.
For `O=C(NCCc1ccc(Cc2cc([C@@H]3O[C@H](CO)[C@@H](O)[C@H](O)[C@H]3O)ccc2Cl)cc1)NC(CO)(CO)CO` [Compound 17, (1S)-1,5-anhydro-1-[4-chloro-3-[4-[2-[[[2-hydroxy-1,1-bis(hydroxymethyl)ethyl]aminocarbonyl]amino]ethyl]benzyl]phenyl]-D-glucitol] the same measures were 0.079 µM and 0.025 µM.
For `Cc1cc(O)c([C@@H]2O[C@H](CO)[C@@H](O)[C@H](O)[C@H]2O)cc1Cc1ccc(OCCNC(=O)NC(CO)(CO)CO)cc1` [Compound 19] the same measures were 0.302 µM and 0.101 µM.
Regarding `COC(=O)CNC(=O)NCCc1ccc(Cc2cc([C@@H]3O[C@H](CO)[C@@H](O)[C@H](O)[C@H]3O)c(O)cc2C)cc1` [Compound 21], the results for the IC50 in test [1] and in test [2] were 0.075 µM and 0.034 µM, respectively.
Regarding `COC(=O)[C@H](Cc1ccccc1)NC(=O)NCCc1ccc(Cc2cc([C@@H]3O[C@H](CO)[C@@H](O)[C@H](O)[C@H]3O)c(O)cc2C)cc1` [Compound 22], the IC50 in test [1] is 0.037 µM; in test [2], 0.012 µM.
For `Cc1cc(O)c([C@@H]2O[C@H](CO)[C@@H](O)[C@H](O)[C@H]2O)cc1Cc1ccc(CCNC(=O)NC2(CO)CCCC2)cc1` [Compound 23], in that order: 0.019 µM and 0.019 µM.
`Cc1cc(O)c([C@@H]2O[C@H](CO)[C@@H](O)[C@H](O)[C@H]2O)cc1Cc1ccc(CCNC(=O)N[C@@H](CC(C)C)C(N)=O)cc1` [Compound 24]: the IC50 turned out to be 0.037 µM in test [1] and 0.025 µM in test [2].
On to `CCCN(CC1CC1)C(=O)NCCc1ccc(Cc2cc([C@@H]3O[C@H](CO)[C@@H](O)[C@H](O)[C@H]3O)c(O)cc2C)cc1` [Compound 25], for which the IC50 in test [1] came out at 0.064 µM; in test [2], 0.02 µM.
In the case of `Cc1cc(O)c([C@@H]2O[C@H](CO)[C@@H](O)[C@H](O)[C@H]2O)cc1Cc1ccc(CCNC(=O)NCc2cccs2)cc1` [Compound 26], the IC50 in test [1] turned out to be 0.052 µM; in test [2], 0.015 µM.
With `Cc1cc(O)c([C@@H]2O[C@H](CO)[C@@H](O)[C@H](O)[C@H]2O)cc1Cc1ccc(CCNC(=O)NCc2cc(Cl)cc(Cl)c2)cc1` [Compound 27], the IC50 in test [1] came out at 0.054 µM; in test [2], 0.015 µM.
In the case of `Cc1cc(O)c([C@@H]2O[C@H](CO)[C@@H](O)[C@H](O)[C@H]2O)cc1Cc1ccc(CCNC(=O)NCC2CCCCC2)cc1` [Compound 28], the IC50 was found to be 0.064 µM in test [1] and 0.018 µM in test [2].
For `CSCCNC(=O)NCCc1ccc(Cc2cc([C@@H]3O[C@H](CO)[C@@H](O)[C@H](O)[C@H]3O)c(O)cc2C)cc1` [Compound 29], in that order: 0.075 µM and 0.017 µM.
For `Cc1cc(O)c([C@@H]2O[C@H](CO)[C@@H](O)[C@H](O)[C@H]2O)cc1Cc1ccc(CCNC(=O)NCCN2CCCC2)cc1` [Compound 30], in that order: 0.111 µM and 0.013 µM.
Turning to `COCCNC(=O)NCCc1ccc(Cc2cc([C@@H]3O[C@H](CO)[C@@H](O)[C@H](O)[C@H]3O)c(O)cc2C)cc1` [Compound 31], the IC50 in test [1] was 0.148 µM; in test [2], 0.039 µM.
For `COC(=O)CCNC(=O)NCCc1ccc(Cc2cc([C@@H]3O[C@H](CO)[C@@H](O)[C@H](O)[C@H]3O)c(O)cc2C)cc1` [Compound 32], in that order: 0.245 µM and 0.044 µM.
For `Cc1cc(O)c([C@@H]2O[C@H](CO)[C@@H](O)[C@H](O)[C@H]2O)cc1Cc1ccc(CCNC(=O)NC2CCN(Cc3ccccc3)CC2)cc1` [Compound 33] the same measures were 0.012 µM and 0.011 µM.
Turning to `Cc1cc(O)c([C@@H]2O[C@H](CO)[C@@H](O)[C@H](O)[C@H]2O)cc1Cc1ccc(CCNC(=O)NC2CN3CCC2CC3)cc1` (stereo partly drawn) [Compound 34], the IC50 was 0.049 µM in test [1] and 0.01 µM in test [2].
For `Cc1cc(O)c([C@@H]2O[C@H](CO)[C@@H](O)[C@H](O)[C@H]2O)cc1Cc1ccc(CCNC(=O)NC2CCCc3ccccc32)cc1` (stereo partly drawn) [Compound 35], in that order: 0.083 µM and 0.034 µM.
For `Cc1cc(O)c([C@@H]2O[C@H](CO)[C@@H](O)[C@H](O)[C@H]2O)cc1Cc1ccc(CCNC(=O)N2CCC(C)CC2)cc1` [Compound 36] the same measures were 0.094 µM and 0.034 µM.
On to `CCC(CO)(CO)NC(=O)NCCc1ccc(Cc2cc([C@@H]3O[C@H](CO)[C@@H](O)[C@H](O)[C@H]3O)c(O)cc2C)cc1` [Compound 38], for which, in test [1], the “SGLT1 % inhibition at 100 nM” value was 89%. The “SGLT2 % inhibition at 100 nM” value in test [2] turned out to be 83%.
